Test results: patent US20100311674A1, “PHARMACEUTICAL COMPOSITIONS WITH A MECHANISM OF MULTI-TARGET RECEPTOR RETROACTION FOR TREATING DEPRESSION” (Yu-Fen Chi, priority 2007, published 2010)

Key:
[1] = system: unpredictable long-term stimulus model; assay: Volume test of drinking sucrose, unpredictable long-term stimulus model (Experiment 8); assay type: in vivo, rat; conditions: 2 mg/kg/d into the stomach, 24 days; 1% sucrose for 1 hour
Method: (§1) Unpredictable long-term stimulus model: Health Wistar male rats, secondary, 240˜270 g of body weight, are purchased from Beijing Vital River Experimental Animal Technology Ltd. Co. (The quality certificate number: SOCK (JING) 2002-2003).
(§2) The above pharmaceuticals are prepared with 0.5% of sodium carboxymethylcellulose (CMC-Na) for feeding into the stomach. Benzylpenicillin sodium for injection is the product of North China Pharmaceutical Huasheng Co. Ltd. (Lot: S0511204), and norepinephrine (NE) and 5-hydrotryptamine (5-HT) standards are the products of Sigma Co. Other reagents are all marketed.
8.4.1 Group division and administration of drug: The rats are grouped randomly into 6 groups. 1. False therapy group; 2. model group (control); 3. high dose of Embodiment 4 (60 mg/kg/d); 4. middle dose of Embodiment 4 (30 mg/kg/d); 5. low dose of Embodiment 4 (15 mg/kg/d); and 6. […]
8.5.5 Volume test of drinking sucrose: The sucrose-intake volume of the rats are compared. […] The drinking volumes are determined before the stimulus and after 3 weeks of the stimulus. […] The differences between the bottle weight before and after the rat drinking sucrose for 1 hour are measured and recorded, and the sucrose-drinking volume for each time is calculated. […]
(§3) 8.6 Statistic calculation: The experimental data are represented as […], and the experimental result is calculated as ANOVA by SPSS 11.5 statistic software.

[2] = Body weight measurement, unpredictable long-term stimulus model (Experiment 8); assay type: in vivo, rat; conditions: 2 mg/kg/d into the stomach, 24 days
Method: as §1, §2
8.4.1 Group division and administration of drug: The rats are grouped randomly into 6 groups. 1. False therapy group; 2. model group (control); 3. high dose of Embodiment 4 (60 mg/kg/d); 4. middle dose of Embodiment 4 (30 mg/kg/d); 5. low dose of Embodiment 4 (15 mg/kg/d); and 6. […] The test drugs and the positive control drug are prepared with 0.5% of CMC-Na for feeding into the stomach once every day.
Unpredictable long-term stimulus model: The rats in the control group eat and drink normally, and there is no stimulus performed. […]
as §3

## Fc1ccc([C@@H]2CCNC[C@H]2COc2ccc3c(c2)OCO3)cc1 [Paroxetine]
[1]
  Sucrose-intake volume: 26.29 ± 4.87 g
[2]
  Increasing body weight: 96.85 ± 9.30 g
